From BindingDB's records for doi:10.7270/Q2KP80J0 (The Scripps Research Institute Molecular Screening Center, 2007)
pIC50: −log10 of the molar value.

biological target: T1, Ephrin type-B receptor 4 (Homo sapiens, UniProt P54760); test: EphB4-ephrin-B2 interaction antagonists, dose response, biochemical, TNYL-RAW peptide displacement (AID 835); details: not given
T1 sequence (P54760 whole entry): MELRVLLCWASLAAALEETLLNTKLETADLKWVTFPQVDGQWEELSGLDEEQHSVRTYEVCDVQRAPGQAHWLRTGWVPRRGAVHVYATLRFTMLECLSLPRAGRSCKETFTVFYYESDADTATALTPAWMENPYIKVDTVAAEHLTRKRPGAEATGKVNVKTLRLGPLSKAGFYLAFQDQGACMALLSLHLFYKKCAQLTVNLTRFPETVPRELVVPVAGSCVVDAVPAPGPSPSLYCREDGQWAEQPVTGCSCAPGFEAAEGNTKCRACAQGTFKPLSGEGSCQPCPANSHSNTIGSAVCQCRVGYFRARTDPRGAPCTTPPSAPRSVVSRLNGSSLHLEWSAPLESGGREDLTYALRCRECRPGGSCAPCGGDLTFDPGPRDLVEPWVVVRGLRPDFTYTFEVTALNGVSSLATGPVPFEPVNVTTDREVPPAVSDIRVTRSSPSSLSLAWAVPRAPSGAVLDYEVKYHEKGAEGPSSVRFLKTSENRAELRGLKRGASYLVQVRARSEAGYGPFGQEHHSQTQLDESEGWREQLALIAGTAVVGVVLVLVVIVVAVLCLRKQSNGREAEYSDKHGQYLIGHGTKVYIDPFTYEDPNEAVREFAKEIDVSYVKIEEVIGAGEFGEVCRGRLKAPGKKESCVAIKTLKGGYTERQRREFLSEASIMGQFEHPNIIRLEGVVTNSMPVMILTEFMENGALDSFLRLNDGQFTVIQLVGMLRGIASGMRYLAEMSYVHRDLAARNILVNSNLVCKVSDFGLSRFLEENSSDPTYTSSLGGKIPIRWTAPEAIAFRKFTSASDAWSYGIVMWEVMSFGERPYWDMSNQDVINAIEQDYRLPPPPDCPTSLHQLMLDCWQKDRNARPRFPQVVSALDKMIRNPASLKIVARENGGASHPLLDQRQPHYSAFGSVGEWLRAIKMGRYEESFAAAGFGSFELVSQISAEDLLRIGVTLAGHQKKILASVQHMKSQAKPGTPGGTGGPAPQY

`CC(=O)Nc1ccc(OCC=C(Cl)Cl)cc1` [MLS000107919] and `CCOC(=O)c1ccc(NC(=S)NCC(O)c2ccccc2)cc1` (stereo not drawn) [4-[(2-hydroxy-2-phenyl-ethyl)thiocarbamoylamino]benzoic acid ethyl ester] cannot be ordered by pIC50: less than 4.10 for the first, less than 4.10 for the second.

`CCOC(=O)N1CCC(n2c(SCC(=O)NCc3ccccc3)nc3ccccc3c2=O)CC1` [4-[2-[[2-(benzylamino)-2-keto-ethyl]thio]-4-keto-quinazolin-3-yl]piperidine-1-carboxylic acid ethyl ester] and `CCOC(=O)N1CCC(n2c(SCC(=O)NCCC3=CCCCC3)nc3ccccc3c2=O)CC1` [4-[2-[[2-[2-(1-cyclohexenyl)ethylamino]-2-oxoethyl]thio]-4-oxo-3-quinazolinyl]-1-piperidinecarboxylic acid ethyl ester] cannot be ordered by pIC50: less than 4.10 for the first, less than 4.10 for the second.

`O=C(c1cnc2ccc(S(=O)(=O)N3CCC4(CC3)OCCO4)cc2c1O)N1CCOCC1` [6-(1,4-dioxa-8-azaspiro[4.5]dec-8-ylsulfonyl)-3-(morpholin-4-ylcarbonyl)quinolin-4(1H)-one] and `CCOc1cc(N2CCOCC2)c(OCC)cc1NC(=O)COc1cccc2cccnc12` [MLS000060380] cannot be ordered by pIC50: less than 4.10 for the first, less than 4.10 for the second.

`COc1ccccc1C1CC(c2c(O)nc3ccc(Cl)cc3c2-c2ccccc2)=NN1S(C)(=O)=O` (stereo not drawn) [(3Z)-6-chloranyl-3-[5-(2-methoxyphenyl)-1-methylsulfonyl-pyrazolidin-3-ylidene]-4-phenyl-quinolin-2-one] and `O=c1c2ccccc2nc(-c2ccoc2)n1CCc1ccccc1` [2-(3-furanyl)-3-(2-phenylethyl)-4-quinazolinone] cannot be ordered by pIC50: less than 4.10 for the first, less than 4.10 for the second.

`CCOc1ccc(C(CCc2ccccc2)NC(=O)c2ccccc2F)cc1OCC` (stereo not drawn) [MLS000544814] and `COc1ccc(C(C)NC(=O)c2ccccc2)cc1` (stereo not drawn) [MLS000525960] cannot be ordered by pIC50: less than 4.10 for the first, less than 4.10 for the second.

`O=C(CC(O)(c1ccccc1)C(F)(F)F)c1cccs1` (stereo not drawn) [4,4,4-trifluoro-3-hydroxy-3-phenyl-1-(2-thienyl)-1-butanone] and `O=C(/C=C/c1ccccc1Cl)NCc1ccccc1` [(E)-3-(2-chlorophenyl)-N-(phenylmethyl)-2-propenamide] cannot be ordered by pIC50: less than 4.10 for the first, less than 4.10 for the second.

`CN(C)c1nccc(Nc2ccccc2)c1C#N` [2-(dimethylamino)-4-phenylazanyl-pyridine-3-carbonitrile] and `COCc1nnc(NC(=O)CC(c2ccccc2)c2ccccc2)s1` [MLS000528014] cannot be ordered by pIC50: less than 4.10 for the first, less than 4.10 for the second.

Going from `Clc1cccc(CN=Nc2ncnc3ccccc23)c1` [3-chlorobenzenecarbaldehyde N-(4-quinazolinyl)hydrazone] to `O=C(NN=C1C(=O)c2cccc3cccc1c23)c1ccc(Cl)cc1` [4-chloranyl-N-[(2-oxidanylideneacenaphthylen-1-ylidene)amino]benzamide], the pIC50 rises from less than 4.10 to 4.75.

`CCC1CCCCN1C(=O)Nc1cccc(NC(=O)N2CCCCC2CC)c1` (stereo not drawn) [2-ethyl-N-[3-[(2-ethylpiperidin-1-yl)carbonylamino]phenyl]piperidine-1-carboxamide] and `O=C1CN(C(=O)CN2CCCCC2)C(c2ccccc2)c2cc(Br)ccc2N1` (stereo not drawn) [7-bromanyl-5-phenyl-4-(2-piperidin-1-ylethanoyl)-3,5-dihydro-1H-1,4-benzodiazepin-2-one] cannot be ordered by pIC50: less than 4.10 for the first, less than 4.10 for the second.

`COCCn1c(C)cc(C(=O)COc2nc3ccccc3nc2C)c1C` [1-[1-(2-methoxyethyl)-2,5-dimethyl-3-pyrrolyl]-2-[(3-methyl-2-quinoxalinyl)oxy]ethanone] and `Cn1cnnc1SCC(=O)Nc1ccc2nc(SCc3cccc4ccccc34)sc2c1` [2-[(4-methyl-1,2,4-triazol-3-yl)sulfanyl]-N-[2-(naphthalen-1-ylmethylsulfanyl)-1,3-benzothiazol-6-yl]acetamide] cannot be ordered by pIC50: less than 4.10 for the first, less than 4.10 for the second.

`CCOC(=O)c1oc2cccc(O)c2c1CN(Cc1ccccc1)C(C)=O` [3-[[acetyl(benzyl)amino]methyl]-4-hydroxy-coumarilic acid ethyl ester] and `COC(=O)c1ccc(NC(=O)CN2CCN(c3cccc(Cl)c3)CC2)cc1` [4-[[2-[4-(3-chlorophenyl)-1-piperazinyl]-1-oxoethyl]amino]benzoic acid methyl ester] cannot be ordered by pIC50: less than 4.10 for the first, less than 4.10 for the second.

`CC(C)(C)C1CCC2(CC1)SCC(=O)N2c1ccccc1` (stereo not drawn) and `O=C1CCCc2c1[nH]c1ccccc21` cannot be ordered by pIC50: less than 4.10 for the first, less than 4.10 for the second.

`C=CCn1c(C#N)c(N)sc1=N` [3-Allyl-5-amino-2-imino-2,3-dihydro-thiazole-4-carbonitrile] and `Cc1cc(C)n2nc(SC3CCCCN(C(=O)c4ccc(F)cc4)C3=O)nc2n1` (stereo not drawn) [3-[(5,7-dimethyl-[1,2,4]triazolo[1,5-a]pyrimidin-2-yl)sulfanyl]-1-(4-fluorobenzoyl)azepan-2-one] cannot be ordered by pIC50: less than 4.10 for the first, less than 4.10 for the second.

same assay, conditions: inactive by the depositor's call

`CCn1c(CSc2nnc3ccccn23)nc2cc(C(=O)O)ccc21` [1-ethyl-2-[([1,2,4]triazolo[4,3-a]pyridin-3-ylthio)methyl]-5-benzimidazolecarboxylic acid] and `CCNc1c2c3c(cccc3n(C)c1=O)C(=O)c1ccccc1-2` [1-(ethylamino)-3-methyl-3H-naphtho[1,2,3-de]quinoline-2,7-dione] are within 0.2 log units of each other in pIC50: 4.69 for the first, 4.59 for the second.
